{"source": "patent US9168275B2", "about": "(priority 2000, dated 2015)", "key": {"[1]": {"tested_on": "children with regressive onset autism", "conditions": "in vivo"}, "[2]": {"tested_on": "person with chronic diarrhea and autism", "format": "in vivo, human", "procedure": "Diarrhea began after three 10 day courses of broad spectrum antimicrobials prescribed over a six week period for “chronic otitis media.” There was no blood or pus in the stool nor associated constitutional symptoms. There was profound behavioral and developmental deterioration, along with emergence of severe autistic features.\nA 12 week therapeutic trial of oral vancomycin (125 mg QID) was begun with expanded observations by a pediatric neuropsychologist pre- and post-treatment. At baseline, the child was not on a special diet nor was […] taking any vitamin supplements. Three days after initiation of the vancomycin therapy, a hyperactivity pattern emerged which lasted for four days. […] became affectionate and relatively calm. […] promptly achieved toilet training and increased vocabulary. Follow-up behavioral observations after eight weeks of therapy noted an increase in on-task performance, compliance with parental requests, awareness of environmental surroundings, and persistence when engaging in positive activities. […] The child's educational therapies remained unchanged for both six months before and during the vancomycin trial. […] Though still improved over baseline, […] eventually lost most of the initial gains."}, "[3]": {"conditions": "in vivo, po; cited from earlier work"}, "clostridia": {"tested_on": "clostridia", "conditions": "cited from earlier work"}, "Bacteroides": {"tested_on": "Bacteroides", "conditions": "cited from earlier work"}, "tetanus toxin": {"biological_target": "tetanus toxin (Clostridium tetani, UniProt P04958)", "sequence (P04958 whole entry, looked up)": "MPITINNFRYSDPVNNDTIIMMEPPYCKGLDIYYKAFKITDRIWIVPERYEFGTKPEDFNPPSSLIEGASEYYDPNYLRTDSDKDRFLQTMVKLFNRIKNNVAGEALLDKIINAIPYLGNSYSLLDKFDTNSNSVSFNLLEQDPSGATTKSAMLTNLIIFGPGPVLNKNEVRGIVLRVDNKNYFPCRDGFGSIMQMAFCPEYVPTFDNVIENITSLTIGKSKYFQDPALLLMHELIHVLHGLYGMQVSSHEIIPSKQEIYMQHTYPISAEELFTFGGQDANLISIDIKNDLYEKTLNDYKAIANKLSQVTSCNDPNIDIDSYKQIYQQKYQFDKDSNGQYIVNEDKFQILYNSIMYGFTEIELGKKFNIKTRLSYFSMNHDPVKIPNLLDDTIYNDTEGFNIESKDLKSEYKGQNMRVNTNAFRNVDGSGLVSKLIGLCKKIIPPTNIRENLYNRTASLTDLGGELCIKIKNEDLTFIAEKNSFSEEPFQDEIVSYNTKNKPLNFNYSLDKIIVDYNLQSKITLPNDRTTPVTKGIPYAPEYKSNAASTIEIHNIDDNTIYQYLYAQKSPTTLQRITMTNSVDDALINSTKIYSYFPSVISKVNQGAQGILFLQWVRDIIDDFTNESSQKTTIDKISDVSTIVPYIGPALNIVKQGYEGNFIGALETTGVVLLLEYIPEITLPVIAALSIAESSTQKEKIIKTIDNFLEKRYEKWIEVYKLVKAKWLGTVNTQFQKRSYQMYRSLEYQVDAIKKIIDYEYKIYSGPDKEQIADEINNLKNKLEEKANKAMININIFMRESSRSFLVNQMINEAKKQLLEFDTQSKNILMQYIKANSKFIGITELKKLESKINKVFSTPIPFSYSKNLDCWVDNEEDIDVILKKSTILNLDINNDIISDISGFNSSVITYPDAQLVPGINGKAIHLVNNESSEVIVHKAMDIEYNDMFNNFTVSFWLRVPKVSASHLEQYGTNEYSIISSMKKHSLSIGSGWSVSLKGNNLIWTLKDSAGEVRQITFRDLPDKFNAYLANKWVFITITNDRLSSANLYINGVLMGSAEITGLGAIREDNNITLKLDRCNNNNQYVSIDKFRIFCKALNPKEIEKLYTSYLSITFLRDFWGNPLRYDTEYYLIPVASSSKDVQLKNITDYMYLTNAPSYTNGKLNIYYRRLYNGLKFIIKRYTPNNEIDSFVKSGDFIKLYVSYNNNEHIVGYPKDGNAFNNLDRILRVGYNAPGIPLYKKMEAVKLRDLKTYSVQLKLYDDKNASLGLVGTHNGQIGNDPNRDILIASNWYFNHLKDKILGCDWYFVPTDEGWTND", "conditions": "cited from earlier work"}}}
{"smiles": "CN[C@H](CC(C)C)C(=O)N[C@H]1C(=O)N[C@@H](CC(N)=O)C(=O)N[C@H]2C(=O)N[C@H]3C(=O)N[C@H](C(=O)N[C@H](C(=O)O)c4cc(O)cc(O)c4-c4cc3ccc4O)[C@H](O)c3ccc(c(Cl)c3)Oc3cc2cc(c3O[C@@H]2O[C@H](CO)[C@@H](O)[C@H](O)[C@H]2O[C@H]2C[C@](C)(N)[C@H](O)[C@H](C)O2)Oc2ccc(cc2Cl)[C@H]1O", "note": "[vancomycin]", "values": [{"measurement": "Analog rating scale, improvement in behavior: Wilcoxon Signed Ranks Z", "setting": "[1]", "value": "−2.9"}, {"measurement": "Analog rating scale, improvement in behavior: p", "setting": "[1]", "value": 0.003}, {"measurement": "Analog rating scale, improvement in communication: Wilcoxon Signed Ranks Z", "setting": "[1]", "value": 2.9}, {"measurement": "Analog rating scale, improvement in communication: p", "setting": "[1]", "value": 0.003}, {"measurement": "Analog ratings at long-term follow-up", "setting": "[1]", "value": "returned towards baseline"}, {"measurement": "Basic blood, stool and urine tests", "setting": "[1]", "value": "unremarkable"}, {"measurement": "Brief (1-4 days) period of hyperactivity: children affected", "setting": "[1]", "value": "six"}, {"measurement": "Day of marked lethargy: subjects affected", "setting": "[1]", "value": "One"}, {"measurement": "Blinded assessment of coded, paired videotapes: possible deterioration", "setting": "[1]; po", "value": "one"}, {"measurement": "Repetitive and self-stimulatory behaviors", "setting": "[2]; after eight weeks of therapy", "value": "significant reduction"}, {"measurement": "Course shortly after discontinuation", "setting": "[2]; after vancomycin discontinuation", "value": "behavioral deterioration"}, {"measurement": "Clinical response", "setting": "[2]; oral vancomycin 125 mg QID, 12 weeks", "value": "rapid and dramatic clinical improvement"}, {"measurement": "Concentration in the intestines", "setting": "[3]", "value": "high concentration"}, {"measurement": "Activity against clostridia", "setting": "clostridia", "value": "effective"}, {"measurement": "Activity against Bacteroides", "setting": "Bacteroides", "value": "effective"}]}
{"smiles": "C[C@H](CS)C(=O)N1CCC[C@H]1C(=O)O", "note": "[Captopril]", "values": [{"measurement": "Effect on tetanus toxin in vitro", "setting": "tetanus toxin", "value": "inactivates"}]}
{"smiles": "CC1(C)S[C@@H]2[C@H](NC(=O)[C@H](N)c3ccccc3)C(=O)N2[C@H]1C(=O)O", "note": "[ampicillin]", "values": [{"measurement": "Activity against clostridia", "setting": "clostridia", "value": "active"}]}
